The numbers were not newly measured in US20190388350A1, “FORMULATION” (priority 2018, published 2019), which cites them from elsewhere.

In general, pKa refers to the pH at which an ionisable group is half protonated.

Molecules are shown by their SMILES. Structures can show the parent of a compound that is named as a salt.

`CCN(C)C(=O)Oc1cccc([C@H](C)N(C)C)c1` [rivastigmine tartrate]: the pKa was 8.9.
